In BigSolDB 2.1:

Details: in acetic acid

CO[C@H]1/C=C/O[C@@]2(C)Oc3c(C)c(O)c4c(O)c(c(/C=N/N5CCN(C6CCCC6)CC5)c(O)c4c3C2=O)NC(=O)/C(C)=C\C=C\[C@H](C)[C@H](O)[C@@H](C)[C@@H](O)[C@@H](C)[C@H](OC(C)=O)[C@@H]1C
Details	solubility (mole fraction)
278.15 K	0.0523
283.15 K	0.0558
288.15 K	0.0595
293.15 K	0.0632
297.15 K	0.067
303.15 K	0.0707
308.15 K	0.0755
313.15 K	0.0805
318.15 K	0.0858
323.15 K	0.0913
